Data taken from patent US20170107203A1, “HETEROCYCLIC INHIBITORS OF THE SODIUM CHANNEL” (EPIRUS BIOPHARMACEUTICALS, INC., priority 2014, published 2017).

Target: T1, human Nav1.7 (Homo sapiens, UniProt Q15858)
T1 construct: expressed in transfected cells
Assay: Assessment of Nav1.7 activity on PatchXpress (voltage dependence / slow inactivation parameters)
Format: cell-based
Details: compound at 10 μM, relative to 0.2% DMSO vehicle control; for hNav1.7: Reduction in current at 20 mV (normalized data) Delta Ratio: before/after 30 sec conditioning pulse at 20 mV; for hNav1.7: Shift in voltage dependence of inactivation (mV) Delta Vhalf: PatchXpress
Method: The generation of a HEK 293F cell line stably expressing human Nav1.7/Navp1 was achieved by co-transfecting human SCN9A and human SCN1B cDNAs, subcloned into plasmid vectors, utilizing standard transfection techniques. Clones were selected using appropriate selection agents (0.3 mg/mL Zeocin and 0.8 mg/mL Geneticin) and maintained in Dulbecco's Modified Eagle medium, 10% fetal bovine serum, 1% non-essential amino acids to ˜80% confluence at 37° C. in a humidified incubator with 95% atmosphere and 5% CO2.
On the day of each experiment, cells that were grown to 80% confluence in a T75 flask were harvested for use on PatchXpress (Molecular Devices, CA, USA). Following a recovery period at 37° C. in a humidified incubator with 95% atmosphere and 5% CO2 in Dulbecco's Modified Eagle Medium, the media was replaced with an external recording solution containing (in mM): 90 TEACI, 50 NaCl, 1.8 CaCl2, 1 MgCl2, 10 HEPES, 10 glucose, adjusted to pH 7.4 with TEAOH and 300 mOsm with sucrose. The internal recording solution contained (in mM): 129 CsF, 2 MgCl2, 11 EGTA, 10 HEPES, 6 NaCl, 3 Na2ATP adjusted to pH 7.2 with CsOH and 280 mOsm with sucrose. The automated liquid handling facility of PatchXpress dispensed cells and added compound. Modulation of Nav1.7 channels by compounds was assessed by promoting the channels into the inactivated state using a conditioning voltage pulse of variable amplitude, followed by a brief hyperpolarizing pulse with a subsequent depolarized voltage step to measure the current amplitude in the presence and absence of compound. Compounds were assayed at 10 μM. Based upon this Patch express protocol, four electrophysiological parameters were measured relative to a 0.2% DMSO vehicle control (Table 2).

T1 sequence (Q15858 whole entry): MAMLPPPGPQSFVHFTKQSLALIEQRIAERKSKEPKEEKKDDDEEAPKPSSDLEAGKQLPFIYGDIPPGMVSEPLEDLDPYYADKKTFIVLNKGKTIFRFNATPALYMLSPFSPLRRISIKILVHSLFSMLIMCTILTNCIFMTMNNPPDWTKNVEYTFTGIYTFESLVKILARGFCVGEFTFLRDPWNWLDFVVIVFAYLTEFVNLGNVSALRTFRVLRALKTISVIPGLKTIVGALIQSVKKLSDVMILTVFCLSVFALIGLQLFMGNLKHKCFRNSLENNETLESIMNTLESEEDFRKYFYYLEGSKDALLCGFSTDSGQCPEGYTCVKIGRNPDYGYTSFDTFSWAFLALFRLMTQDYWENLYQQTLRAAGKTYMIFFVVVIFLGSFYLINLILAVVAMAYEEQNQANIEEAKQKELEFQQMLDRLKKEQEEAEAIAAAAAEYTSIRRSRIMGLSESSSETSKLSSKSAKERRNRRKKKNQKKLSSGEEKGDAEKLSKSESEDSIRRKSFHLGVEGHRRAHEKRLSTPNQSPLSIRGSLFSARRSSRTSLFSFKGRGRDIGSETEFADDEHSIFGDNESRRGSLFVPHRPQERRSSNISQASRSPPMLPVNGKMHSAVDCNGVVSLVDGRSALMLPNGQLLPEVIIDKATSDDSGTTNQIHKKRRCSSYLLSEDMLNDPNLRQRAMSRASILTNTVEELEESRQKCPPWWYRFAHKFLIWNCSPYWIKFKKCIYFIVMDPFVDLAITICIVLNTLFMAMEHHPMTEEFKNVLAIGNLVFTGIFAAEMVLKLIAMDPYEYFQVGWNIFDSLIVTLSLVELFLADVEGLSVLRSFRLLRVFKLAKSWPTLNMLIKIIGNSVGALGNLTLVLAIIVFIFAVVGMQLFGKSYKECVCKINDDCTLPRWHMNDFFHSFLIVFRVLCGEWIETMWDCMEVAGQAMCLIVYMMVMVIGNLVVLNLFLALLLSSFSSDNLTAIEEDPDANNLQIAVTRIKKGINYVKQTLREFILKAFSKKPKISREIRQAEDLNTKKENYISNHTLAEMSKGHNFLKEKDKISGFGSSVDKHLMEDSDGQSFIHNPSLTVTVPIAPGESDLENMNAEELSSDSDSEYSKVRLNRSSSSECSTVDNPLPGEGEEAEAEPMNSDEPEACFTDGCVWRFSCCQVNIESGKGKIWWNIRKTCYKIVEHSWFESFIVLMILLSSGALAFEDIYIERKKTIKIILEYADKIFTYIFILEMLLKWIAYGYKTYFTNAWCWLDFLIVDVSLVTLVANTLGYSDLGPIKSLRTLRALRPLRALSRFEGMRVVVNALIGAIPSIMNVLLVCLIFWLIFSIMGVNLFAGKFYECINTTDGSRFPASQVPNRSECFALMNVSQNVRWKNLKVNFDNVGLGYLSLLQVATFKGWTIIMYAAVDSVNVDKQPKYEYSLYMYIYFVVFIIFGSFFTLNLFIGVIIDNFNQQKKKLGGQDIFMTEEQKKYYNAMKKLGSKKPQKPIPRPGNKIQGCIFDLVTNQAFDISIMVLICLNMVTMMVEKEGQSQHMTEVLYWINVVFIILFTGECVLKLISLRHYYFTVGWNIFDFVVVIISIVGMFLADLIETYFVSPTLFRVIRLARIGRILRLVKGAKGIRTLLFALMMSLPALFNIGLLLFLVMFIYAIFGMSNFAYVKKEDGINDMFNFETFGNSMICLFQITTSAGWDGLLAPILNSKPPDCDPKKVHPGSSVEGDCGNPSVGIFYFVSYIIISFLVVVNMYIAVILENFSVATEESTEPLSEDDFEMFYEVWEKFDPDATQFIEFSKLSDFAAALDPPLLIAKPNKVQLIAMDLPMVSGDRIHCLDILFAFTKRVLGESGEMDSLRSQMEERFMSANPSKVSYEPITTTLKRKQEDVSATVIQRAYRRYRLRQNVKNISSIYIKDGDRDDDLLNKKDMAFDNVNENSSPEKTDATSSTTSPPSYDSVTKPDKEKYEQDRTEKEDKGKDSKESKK
T1 sequence (Q07699 19-218 partner): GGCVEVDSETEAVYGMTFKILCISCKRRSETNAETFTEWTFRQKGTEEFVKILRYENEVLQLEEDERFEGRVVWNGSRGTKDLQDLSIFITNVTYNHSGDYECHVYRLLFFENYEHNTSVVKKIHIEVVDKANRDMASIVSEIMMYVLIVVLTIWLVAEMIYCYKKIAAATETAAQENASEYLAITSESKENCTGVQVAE

SMILES	hNav1.7: Reduction in current at 20 mV (normalized data) Delta Ratio	hNav1.7: Voltage dependence of activation (mV) VDEP [mV]	hNav1.7: Voltage dependence of fast inactivation (mV) VDEP [mV]	hNav1.7: Shift in voltage dependence of inactivation (mV) Delta Vhalf [mV]
O=C(NCCOc1cc(F)cc(C(F)(F)F)c1)[C@@H]1CCCN1 [Compound 22, (S)-N-(2-(3-fluoro-5-(trifluoromethyl)phenoxy)ethyl) pyrrolidine-2-carboxamide]	0.06	−6.50	−1.80	−7.00
Cc1cccc(C)c1OCC(C)NC(=O)C(C)(C)CC(=O)N1CCNCC1 (stereo not drawn) [Compound 33, N-(1-(2,6-dimethylphenoxy)propan-2-yl)-2,2-dimethyl-4-oxo-4-(piperazin-1-yl)butanamide]	−0.07	−8.70	−6.00	−5.30
Cc1cccc(C)c1OCC(C)NC(=O)CC(=O)NC1CCNCC1 (stereo not drawn) [Compound 34, N1-(1-(2,6-dimethylphenoxy)propan-2-yl)-N3-(piperidin-4-yl)malonamide]	−0.03	−6.30	−5.10	−2.30
Cc1cccc(C)c1OCC(C)NC(=O)CN1CCNCC1=O (stereo not drawn) [Compound 35, N-(1-(2,6-dimethylphenoxy)propan-2-yl)-2-(2-oxopiperazin-1-yl)acetamide]	−0.06	−7.40	−4.40	−3.00
Cc1cccc(C)c1OCC(C)NC(=O)CCN1CCNCC1=O (stereo not drawn) [Compound 36, N-(1-(2,6-dimethylphenoxy)propan-2-yl)-3-(2-oxopiperazin-1-yl)propanamide]	−0.04	−12.90	−5.00	−2.90
Cc1cccc(C)c1OCC(C)NC(=O)C(C)(C)N1CCNCC1=O (stereo not drawn) [Compound 37, N-(1-(2,6-dimethylphenoxy)propan-2-yl)-2-methyl-2-(2-oxopiperazin-1-yl)propanamide]	−0.09	−9.00	−6.30	−5.00
NCC[C@@H]1Nc2c(cc(C(F)(F)F)cc2C(F)(F)F)NC1=O [Compound 39, (S)-3-(2-aminoethyl)-5,7-bis(trifluoromethyl)-3,4-dihydroquinoxalin-2(1H)-one]	−0.08	−7.40	−3.10	−4.90
NC[C@@H]1Nc2c(cc(C(F)(F)F)cc2C(F)(F)F)NC1=O [Compound 40, (S)-3-(aminomethyl)-5,7-bis(trifluoromethyl)-3,4-dihydroquinoxalin-2(1H)-one]	−0.02	−6.60	−2.60	−3.90
O=C1NC(=O)C(c2cc(C(F)(F)F)cc(C(F)(F)F)c2)N1 (stereo not drawn) [Compound 41, 5-(3,5-bis(trifluoromethyl)phenyl) imidazolidine-2,4-dione]	0.00	−9.00	−5.30	−2.80
CC1(c2cc(C(F)(F)F)cc(C(F)(F)F)c2)NC(=O)NC1=O (stereo not drawn) [Compound 42, 5-(3,5-bis(trifluoromethyl)phenyl)-5-methylimidazolidine-2,4-dione]	0.02	−6.60	−2.50	0.50
CC12CC3CC(C)(C1)CC(NC(=O)[C@H]1CCCN1)(C3)C2 [Compound 43, (2R)-N-(3,5-dimethyladamantan-1-yl)pyrrolidine-2-carboxamide]	−0.12	−11.40	−5.70	−8.50
O=C(NCC12CC3CC(CC(C3)C1)C2)[C@H]1CCCN1 [Compound 44, (R)-N-(adamantan-1-ylmethyl)pyrrolidine-2-carboxamide]	−0.11	−13.20	−6.00	−5.40

Other lines, results leading:

hNav1.7: Reduction in current at 20 mV (normalized data) Delta Ratio	hNav1.7: Voltage dependence of activation (mV) VDEP [mV]	hNav1.7: Voltage dependence of fast inactivation (mV) VDEP [mV]	hNav1.7: Shift in voltage dependence of inactivation (mV) Delta Vhalf [mV]	SMILES
−0.07	−5.10	−7.00	−6.20	O=C(NC12CC3CC(CC(C3)C1)C2)[C@@H]1CCCN1 [Compound 45, (S)-N-(adamantan-1-yl)pyrrolidine-2-carboxamide]
−0.04	−7.90	−4.50	−1.70	CC12CC3CC(C)(C1)CC(NC(=O)CCN)(C3)C2 [Compound 46, 3-amino-N-(3,5-dimethyladamantan-1-yl)propanamide]
−0.02	−8.90	−4.40	−2.50	O=C(CN1CCNCC1=O)NCC(F)(F)F [Compound 47, 2-(2-oxopiperazin-1-yl)-N-(2,2,2-trifluoroethyl)acetamide]
−0.01	−4.80	−3.00	−1.80	O=C(NCCc1c[nH]c2ccc(F)cc12)[C@@H]1CCCN1 [Compound 48, (S)-N-(2-(5-fluoro-1H-indol-3-yl)ethyl)pyrrolidine-2-carboxamide]
−0.18	−10.20	−7.80	−6.40	O=C(NC[C@H]1CCCN1)Nc1cc(C(F)(F)F)cc(C(F)(F)F)c1 [Compound 49, (R)-1-(3,5-bis(trifluoromethyl)phenyl)-3-(pyrrolidin-2-ylmethyl)urea]
0.02	−8.30	−2.10	−0.30	CC(=O)N1CCC(NC(=O)Nc2ccc(OC(F)(F)F)cc2)CC1 [Compound 50, 1-(1-acetylpiperidin-4-yl)-3-(4-(trifluoromethoxy)phenyl)urea]
−0.35	−9.5	−11.5	−20.8	N[C@@H](Cc1ccccc1)c1nc2cc(C(F)(F)F)cc(C(F)(F)F)c2[nH]1 [Compound 51, (S)-1-(4,6-bis(trifluoromethyl)-1H-benzo[d]imidazol-2-yl)-2-phenylethan-1-amine]
−0.28	−7.2	−8.2	−14.9	NC1(c2nc3cc(C(F)(F)F)cc(C(F)(F)F)c3[nH]2)Cc2ccccc2C1 [Compound 52, 2-(4,6-bis(trifluoromethyl)-1H-benzo[d]imidazol-2-yl)-2,3-dihydro-1H-inden-2-amine]
−0.28	−8.2	−3.9	−7.2	N[C@@H](Cc1ccccc1)Cc1nc2cc(C(F)(F)F)cc(C(F)(F)F)c2[nH]1 [Compound 53, (S)-1-(4,6-bis(trifluoromethyl)-1H-benzo[d]imidazol-2-yl)-3-phenylpropan-2-amine]
